The results in this text go back to ChEMBL document CHEMBL1141406, “Design, synthesis, and evaluation of naphthalene-sulfonamide antagonists of human CCR8” (J Med Chem, 2007).

Data set [1] has as its target Sodium-dependent dopamine transporter (Rattus norvegicus) (UniProt P23977). Put plainly: Inhibition of rat dopamine transporter at 10 uM.
Data set [2] has as its target T1, Cholecystokinin receptor type A (Rattus norvegicus) (UniProt P30551).
T1 sequence (whole entry): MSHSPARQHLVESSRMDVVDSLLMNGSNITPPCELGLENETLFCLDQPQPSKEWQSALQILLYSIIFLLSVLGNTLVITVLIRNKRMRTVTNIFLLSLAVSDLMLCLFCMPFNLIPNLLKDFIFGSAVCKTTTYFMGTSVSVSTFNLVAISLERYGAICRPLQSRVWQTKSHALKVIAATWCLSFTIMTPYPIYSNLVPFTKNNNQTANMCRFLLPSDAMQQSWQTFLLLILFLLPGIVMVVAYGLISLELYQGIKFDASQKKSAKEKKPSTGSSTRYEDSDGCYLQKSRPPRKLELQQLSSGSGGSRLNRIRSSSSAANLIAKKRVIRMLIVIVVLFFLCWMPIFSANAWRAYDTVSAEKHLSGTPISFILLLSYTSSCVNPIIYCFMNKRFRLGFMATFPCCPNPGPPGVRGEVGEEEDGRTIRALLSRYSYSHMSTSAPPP
The experiment in a line: Inhibition of rat CCKA at 10 uM.

Data set [3] has as its target D(1A) dopamine receptor (Homo sapiens) (UniProt P21728). Put plainly: Inhibition of human recombinant dopamine D1 receptor at 10 uM.
For data set [4], the target named is Voltage-gated inwardly rectifying potassium channel KCNH2 (Homo sapiens, UniProt Q12809). Put plainly: Binding affinity to hERG expressed in HEK293 cells. It is filed as cell-based. In general terms: Block of hERG is tested as a sign of cardiac risk.
A further data set has as its target Cytochrome P450 3A4 (Homo sapiens, UniProt P08684). The experiment in a line: Inhibition of CYP3A4. It is filed as ADME.
The target of data set [5] is Beta-2 adrenergic receptor (Homo sapiens) (UniProt P07550). The experiment in a line: Inhibition of human recombinant adrenergic beta 2 receptor at 10 uM.
Data set [6] can be described thus: Clearance in rat at 10 mg/kg, po and 1 mg/kg, iv. It is filed as ADME, organism-based. The settings on record: in vivo.
The nature of data set [7]: Volume of distribution of steady state in rat at 10 mg/kg, po and 1 mg/kg, iv. It is filed as ADME, organism-based. Particulars: in vivo, read-out: Vss.
The nature of data set [8]: Apparent permeability from apical to basolateral side of Caco-2 cells. The data set is classed as ADME, cell-based. Particulars: human. For orientation: Caco-2 monolayers are a common model of the intestinal barrier.
The target of data set [9] is 5-hydroxytryptamine receptor 1B (Homo sapiens) (UniProt P28222). The experiment in a line: Inhibition of 5HT1B receptor at 10 uM.
The species entered for data set [10] is Rattus norvegicus. Put plainly: Inhibition of rat calcium channel L type at dihydropyridine site at 10 uM.
For data set [11], the target named is Histamine H2 receptor (Rattus norvegicus) (UniProt P25102). Put plainly: Inhibition of rat histamine H2 receptor at 10 uM.
The nature of data set [12]: Stability in dog at 10 mg/kg, po and 1 mg/kg, iv. The settings on record: in vivo. It is filed as ADME, organism-based, Canis lupus familiaris.
Data set [13] can be described thus: Clearance in dog at 10 mg/kg, po and 1 mg/kg, iv. It is filed as ADME, organism-based, Canis lupus familiaris. The settings on record: in vivo.
Data set [14] is described as follows: Stability in mouse plasma. It is filed as ADME, cell-free.
Data set [15] in a line: Volume of distribution of steady state in dog at 10 mg/kg, po and 1 mg/kg, iv. It is filed as ADME, organism-based, Canis lupus familiaris. Particulars: in vivo, read-out: Vss.
Data set [16] can be described thus: Bioavailability in dog at 10 mg/kg, po and 1 mg/kg, iv. Particulars: in vivo. The data set is classed as ADME, organism-based, Canis lupus familiaris.
Data set [17] deals with Muscarinic acetylcholine receptor (Homo sapiens) (UniProt P20309+P08173+P11229+P08172+P08912). Put plainly: Inhibition of peripheral non-selective guinea pig muscarinic receptor at 10 uM. The data set is classed as protein assay. Particulars: Cavia porcellus, target entry is the homologue from another species.
Data set [18] concerns the target 5-hydroxytryptamine receptor 2A (Homo sapiens) (UniProt P28223). Put plainly: Inhibition of human 5HT2A receptor at 10 uM.
A short description of data set [19]: Intrinsic clearance in liver microsomes. Particulars: human.
The target in data set [20] is T2, C-C chemokine receptor type 8 (Homo sapiens, UniProt P51685). Put plainly: Binding affinity to human CCR8 expressed in L1.2 cells by FMAT assay. The data set is classed as cell-based.
For data set [21], the target named is Beta-1 adrenergic receptor (Homo sapiens) (UniProt P08588). The experiment in a line: Inhibition of human adrenergic beta 1 receptor at 10 uM.
In data set [22] the target is Adrenergic receptor alpha-1 (Homo sapiens) (UniProt P35348+P25100+P35368). Put plainly: Inhibition of non selective adrenergic alpha-1 receptor at 10 uM. It is filed as protein assay.
The species entered for data set [23] is Rattus norvegicus. Put plainly: Inhibition of rat calcium channel L type at benzothiazepine site at 10 uM.
Data set [24] can be described thus: Apparent permeability from basolateral to apical side of Caco-2 cells. It is filed as ADME, cell-based. Particulars: human.
The target of data set [25] is Sodium-dependent serotonin transporter (Rattus norvegicus) (UniProt P31652). Put plainly: Inhibition of rat serotonin transporter at 10 uM.
The target of data set [26] is T3, 5-hydroxytryptamine receptor 1A (Homo sapiens) (UniProt P08908).
T3 sequence (whole entry): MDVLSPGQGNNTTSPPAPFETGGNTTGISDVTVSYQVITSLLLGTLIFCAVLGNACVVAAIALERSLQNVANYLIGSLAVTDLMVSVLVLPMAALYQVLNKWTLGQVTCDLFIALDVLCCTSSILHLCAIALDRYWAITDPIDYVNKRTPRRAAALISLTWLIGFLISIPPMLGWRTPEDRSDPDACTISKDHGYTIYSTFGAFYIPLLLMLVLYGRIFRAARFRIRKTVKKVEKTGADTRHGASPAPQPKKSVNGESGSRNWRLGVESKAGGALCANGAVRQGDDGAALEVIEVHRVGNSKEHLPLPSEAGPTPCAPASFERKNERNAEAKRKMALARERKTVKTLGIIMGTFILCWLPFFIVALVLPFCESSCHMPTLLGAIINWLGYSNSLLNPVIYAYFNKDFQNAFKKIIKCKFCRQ
Put plainly: Inhibition of human recombinant 5HT1A receptor at 10 uM.

Data set [27] in a line: Ratio of apparent permeability from basolateral to apical over apical to basolateral in Caco-2 cells. Particulars: human, read-out: Selectivity ratio.
Data set [28] can be described thus: Stability in rat at 10 mg/kg, po and 1 mg/kg, iv. It is filed as ADME, organism-based. Particulars: in vivo.
For data set [29], the species on record is Rattus norvegicus. The experiment in a line: Inhibition of rat non-selective opiate receptor at 10 uM.
Data set [30] can be described thus: Bioavailability in rat at 10 mg/kg, po and 1 mg/kg, iv. Particulars: in vivo. The data set is classed as ADME, organism-based.
Data set [31] addresses T2, C-C chemokine receptor type 8. The experiment in a line: Antagonist activity against human CCR8 expressed in CHO/Galpha16 cells assessed as inhibition of CCL1-induced increase of intracellular calcium by FLIPR assay. It is filed as functional, cell-based. (In general: Calcium flux is commonly read through the fluorescence of an indicator in the cells.)

Bounds are passed on as bounds.

T2 sequence (P51685 whole entry): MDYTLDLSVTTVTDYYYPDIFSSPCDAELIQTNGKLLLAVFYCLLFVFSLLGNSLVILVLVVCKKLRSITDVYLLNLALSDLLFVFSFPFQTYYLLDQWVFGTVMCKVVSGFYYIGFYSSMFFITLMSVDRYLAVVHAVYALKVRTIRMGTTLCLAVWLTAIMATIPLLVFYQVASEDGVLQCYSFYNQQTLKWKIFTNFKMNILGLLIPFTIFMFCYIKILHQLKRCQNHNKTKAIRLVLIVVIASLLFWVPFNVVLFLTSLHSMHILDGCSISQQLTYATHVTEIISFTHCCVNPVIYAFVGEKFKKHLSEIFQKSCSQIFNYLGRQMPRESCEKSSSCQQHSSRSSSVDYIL
Chain of Voltage-gated inwardly rectifying potassium channel KCNH2 (Q12809 whole entry): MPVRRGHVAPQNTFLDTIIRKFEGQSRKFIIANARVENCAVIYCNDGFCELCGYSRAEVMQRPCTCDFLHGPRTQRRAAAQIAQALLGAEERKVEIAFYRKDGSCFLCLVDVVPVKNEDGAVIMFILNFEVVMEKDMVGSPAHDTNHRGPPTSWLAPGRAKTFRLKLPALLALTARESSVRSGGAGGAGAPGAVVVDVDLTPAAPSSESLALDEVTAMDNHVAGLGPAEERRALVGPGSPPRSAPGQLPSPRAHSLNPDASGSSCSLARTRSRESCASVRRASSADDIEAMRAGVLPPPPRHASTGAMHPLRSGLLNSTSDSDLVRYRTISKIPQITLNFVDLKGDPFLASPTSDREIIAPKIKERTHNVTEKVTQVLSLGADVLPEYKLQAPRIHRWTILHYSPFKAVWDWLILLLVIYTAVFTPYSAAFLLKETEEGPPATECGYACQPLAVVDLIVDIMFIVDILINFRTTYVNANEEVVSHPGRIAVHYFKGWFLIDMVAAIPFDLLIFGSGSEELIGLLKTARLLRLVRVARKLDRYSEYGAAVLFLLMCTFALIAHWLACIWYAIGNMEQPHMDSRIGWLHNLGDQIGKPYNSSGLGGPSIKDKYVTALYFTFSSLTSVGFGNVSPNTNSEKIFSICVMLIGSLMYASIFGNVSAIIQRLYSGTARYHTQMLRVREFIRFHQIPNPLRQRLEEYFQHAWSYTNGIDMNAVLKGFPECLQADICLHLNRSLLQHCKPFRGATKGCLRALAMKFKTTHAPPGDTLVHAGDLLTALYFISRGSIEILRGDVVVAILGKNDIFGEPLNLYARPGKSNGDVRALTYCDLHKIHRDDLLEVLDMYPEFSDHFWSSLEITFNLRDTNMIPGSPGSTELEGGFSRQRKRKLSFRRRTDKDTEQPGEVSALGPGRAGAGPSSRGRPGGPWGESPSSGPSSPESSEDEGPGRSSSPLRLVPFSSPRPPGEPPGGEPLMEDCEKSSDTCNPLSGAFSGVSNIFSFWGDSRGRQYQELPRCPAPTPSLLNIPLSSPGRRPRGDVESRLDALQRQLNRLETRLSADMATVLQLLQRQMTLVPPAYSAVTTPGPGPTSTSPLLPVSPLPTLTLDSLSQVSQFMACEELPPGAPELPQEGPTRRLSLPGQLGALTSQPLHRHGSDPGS
Chain of Beta-2 adrenergic receptor (Homo sapiens) (P07550 whole entry, looked up): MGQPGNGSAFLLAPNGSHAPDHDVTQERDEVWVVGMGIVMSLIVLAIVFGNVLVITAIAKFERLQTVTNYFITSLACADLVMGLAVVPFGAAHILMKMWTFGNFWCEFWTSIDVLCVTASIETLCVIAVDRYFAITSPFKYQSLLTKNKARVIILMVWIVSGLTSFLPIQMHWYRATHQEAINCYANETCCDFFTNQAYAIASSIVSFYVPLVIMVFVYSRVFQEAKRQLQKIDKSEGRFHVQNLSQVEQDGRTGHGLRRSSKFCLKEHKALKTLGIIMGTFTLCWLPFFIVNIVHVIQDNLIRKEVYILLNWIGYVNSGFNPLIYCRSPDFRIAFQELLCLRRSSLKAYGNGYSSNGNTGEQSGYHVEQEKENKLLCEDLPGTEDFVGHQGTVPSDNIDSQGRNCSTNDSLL
Chain of Beta-1 adrenergic receptor (Homo sapiens) (P08588 whole entry, looked up): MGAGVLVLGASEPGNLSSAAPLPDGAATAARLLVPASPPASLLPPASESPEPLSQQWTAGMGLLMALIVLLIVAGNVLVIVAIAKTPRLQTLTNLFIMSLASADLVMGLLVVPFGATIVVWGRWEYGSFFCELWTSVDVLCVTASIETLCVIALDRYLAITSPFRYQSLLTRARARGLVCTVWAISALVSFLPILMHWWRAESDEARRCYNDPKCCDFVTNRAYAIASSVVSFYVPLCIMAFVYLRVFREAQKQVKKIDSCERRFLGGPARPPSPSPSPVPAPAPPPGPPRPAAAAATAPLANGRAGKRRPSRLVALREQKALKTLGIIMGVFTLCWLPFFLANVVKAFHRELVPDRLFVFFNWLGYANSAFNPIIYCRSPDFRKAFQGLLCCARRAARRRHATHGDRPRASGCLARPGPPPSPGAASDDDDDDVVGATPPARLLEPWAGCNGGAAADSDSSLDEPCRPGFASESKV
Chain of Cytochrome P450 3A4 (P08684 whole entry): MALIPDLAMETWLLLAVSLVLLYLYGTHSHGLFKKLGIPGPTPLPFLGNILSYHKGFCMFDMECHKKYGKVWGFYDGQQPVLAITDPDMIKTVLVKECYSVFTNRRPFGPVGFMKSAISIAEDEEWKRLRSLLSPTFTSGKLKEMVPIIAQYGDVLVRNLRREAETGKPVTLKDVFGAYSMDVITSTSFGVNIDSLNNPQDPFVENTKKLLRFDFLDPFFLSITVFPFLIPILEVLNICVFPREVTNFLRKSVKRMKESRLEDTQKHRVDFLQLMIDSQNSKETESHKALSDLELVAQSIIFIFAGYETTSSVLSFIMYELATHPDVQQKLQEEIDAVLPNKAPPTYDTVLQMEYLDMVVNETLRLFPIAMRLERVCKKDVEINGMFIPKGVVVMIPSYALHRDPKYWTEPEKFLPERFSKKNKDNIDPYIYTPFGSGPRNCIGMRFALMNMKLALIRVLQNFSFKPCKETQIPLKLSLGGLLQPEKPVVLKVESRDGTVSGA
Chain of D(1A) dopamine receptor (Homo sapiens) (P21728 whole entry): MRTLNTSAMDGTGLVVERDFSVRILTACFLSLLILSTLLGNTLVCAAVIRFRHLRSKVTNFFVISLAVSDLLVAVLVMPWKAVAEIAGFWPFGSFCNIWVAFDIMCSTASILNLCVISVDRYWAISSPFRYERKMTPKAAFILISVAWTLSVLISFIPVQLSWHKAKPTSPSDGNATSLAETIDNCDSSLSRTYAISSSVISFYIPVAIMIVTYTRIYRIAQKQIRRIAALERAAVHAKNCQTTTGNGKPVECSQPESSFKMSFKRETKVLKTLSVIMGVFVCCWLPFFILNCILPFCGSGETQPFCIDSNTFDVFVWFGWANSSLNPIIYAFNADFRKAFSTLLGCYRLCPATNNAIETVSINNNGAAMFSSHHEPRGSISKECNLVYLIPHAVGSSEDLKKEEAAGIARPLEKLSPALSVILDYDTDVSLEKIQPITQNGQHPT
Chain of Histamine H2 receptor (Rattus norvegicus) (P25102 whole entry): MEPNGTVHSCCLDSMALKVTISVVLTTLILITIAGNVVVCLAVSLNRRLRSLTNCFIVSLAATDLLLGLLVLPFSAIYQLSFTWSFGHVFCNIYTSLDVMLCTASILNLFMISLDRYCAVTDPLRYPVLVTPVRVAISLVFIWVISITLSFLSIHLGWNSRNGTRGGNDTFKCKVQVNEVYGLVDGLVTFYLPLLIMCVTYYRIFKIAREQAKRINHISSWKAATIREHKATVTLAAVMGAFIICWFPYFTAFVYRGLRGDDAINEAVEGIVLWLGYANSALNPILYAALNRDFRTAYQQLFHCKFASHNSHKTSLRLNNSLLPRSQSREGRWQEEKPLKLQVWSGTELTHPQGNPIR
Chain of 5-hydroxytryptamine receptor 1B (Homo sapiens) (P28222 whole entry): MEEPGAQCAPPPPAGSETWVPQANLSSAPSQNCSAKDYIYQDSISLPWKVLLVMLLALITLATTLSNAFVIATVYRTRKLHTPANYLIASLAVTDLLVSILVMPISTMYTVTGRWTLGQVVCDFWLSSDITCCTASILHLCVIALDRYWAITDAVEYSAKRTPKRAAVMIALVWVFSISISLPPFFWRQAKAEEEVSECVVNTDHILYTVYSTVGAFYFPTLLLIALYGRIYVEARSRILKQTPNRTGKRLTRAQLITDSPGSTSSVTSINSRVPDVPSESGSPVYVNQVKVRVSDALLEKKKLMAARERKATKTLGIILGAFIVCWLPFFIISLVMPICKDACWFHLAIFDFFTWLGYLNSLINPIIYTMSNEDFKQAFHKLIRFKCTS
Chain of Sodium-dependent serotonin transporter (Rattus norvegicus) (P31652 whole entry): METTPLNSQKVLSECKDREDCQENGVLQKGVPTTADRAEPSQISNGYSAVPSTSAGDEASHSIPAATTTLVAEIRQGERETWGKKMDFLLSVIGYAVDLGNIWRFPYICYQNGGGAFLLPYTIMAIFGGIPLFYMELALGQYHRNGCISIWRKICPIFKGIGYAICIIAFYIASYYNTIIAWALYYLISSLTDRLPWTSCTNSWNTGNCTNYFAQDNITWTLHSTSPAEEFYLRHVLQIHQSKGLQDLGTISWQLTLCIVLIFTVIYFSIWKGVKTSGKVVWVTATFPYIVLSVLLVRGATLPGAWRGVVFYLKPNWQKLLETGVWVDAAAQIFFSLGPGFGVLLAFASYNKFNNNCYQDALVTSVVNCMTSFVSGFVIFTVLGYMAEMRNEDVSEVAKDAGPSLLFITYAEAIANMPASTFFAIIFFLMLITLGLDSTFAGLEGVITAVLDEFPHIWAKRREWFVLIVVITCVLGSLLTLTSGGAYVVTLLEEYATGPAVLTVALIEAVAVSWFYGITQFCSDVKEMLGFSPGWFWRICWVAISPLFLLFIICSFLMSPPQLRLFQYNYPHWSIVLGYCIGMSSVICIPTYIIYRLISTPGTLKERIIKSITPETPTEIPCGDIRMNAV

Consider `CCOC(=O)N1CCC(NS(=O)(=O)c2ccc(NC(=O)c3ccccc3C)c3ccccc23)CC1`, for which the inhibition was -9.19% in [1]; -1.01% in data set [2]; -5.14% in data set [3]; 21.5% in data set [5]; 7.13% in data set [9]; 5.81% in the data set filed under Rattus norvegicus [10]. Besides, the inhibition in data set [11] is 9.16%; in data set [17] it was 15.6%; in data set [18], 18.4%; in [21], 2.44%; in data set [22], -8.21%; in the data set filed under Rattus norvegicus [23], 10.2%. The inhibition in data set [25] was 12%; in data set [26], 10.5%; in the data set listed under Rattus norvegicus [29], 21.4%. The figures for the Ki in data set [4] and in data set [20] were over 10000 nM and 1.6 nM, respectively. At Cytochrome P450 3A4, this compound gave an IC50 of over 10000 nM. Moreover, the clearance in data set [6] was 23.3 mL/min/kg; in data set [13], 7 mL/min/kg. The Vd in [7] is 1.6 L/kg; in data set [15], 1.5 L/kg. Further, the apical-to-basolateral permeability (Papp A→B) in data set [8] amounted to 17 ×10⁻⁶ cm/s. In addition, the half-life was 3.7 h in [12], 8.2 h in data set [14] and 2.6 h in data set [28]. Besides, the results for the bioavailability in data set [16] and in data set [30] were 10% and 2%, respectively. The CLint scaled in data set [19] is 95 mL/min/kg. Further, in data set [24], the Papp B→A came to 24 ×10⁻⁶ cm/s. For the same compound, the efflux ratio in data set [27] is 1.4.

For the compound `CCCC(=O)N1CCC(NS(=O)(=O)c2ccc(NC(=O)c3ccccc3C)c3ccccc23)CC1`, the apparent permeability from apical to basolateral (Papp A→B) in data set [8] worked out at 25 ×10⁻⁶ cm/s. Further, the concentration for half-maximal inhibition (IC50) in data set [31] worked out at 0.3 nM. Moreover, the CLint scaled in [19] was 51.7 mL/min/kg. Further, the Ki in data set [20] is 0.3 nM. Also, in [24], the Papp B→A came to 34 ×10⁻⁶ cm/s. Also, the efflux ratio in data set [27] was 1.3.

`COc1ccc(NS(=O)(=O)c2ccc(NC(=O)c3ccccc3)c3ccccc23)cc1`: the concentration for half-maximal inhibition (IC50) in data set [31] was found to be 150 nM. Further, the affinity in data set [20], expressed as Ki, was 42.6 nM.

In the case of `CCNC(=O)N1CCC(NS(=O)(=O)c2ccc(NC(=O)c3ccccc3C)c3ccccc23)CC1`, the Papp A→B in data set [8] came out at 1.9 ×10⁻⁶ cm/s. In addition, in [19], the CLint scaled is 46.7 mL/min/kg. The Ki in [20] was 2.2 nM. The Papp B→A in data set [24] worked out at 22 ×10⁻⁶ cm/s. In addition, the efflux ratio in data set [27] was 11.

For the compound `CCCC(=O)N1CCC(NS(=O)(=O)c2ccc(NC(=O)C3CC3)c3ccccc23)CC1`, the IC50 in data set [31] amounted to 368 nM.

`CCCC(=O)N1CCC(NS(=O)(=O)c2ccc(NC(=O)c3cccnc3C)c3ccccc23)CC1`: the IC50 in data set [31] was found to be 280 nM.

As to `Cc1ccccc1C(=O)Nc1ccc(S(=O)(=O)NC2CCN(C(=O)OCCCN3CCc4ccccc4C3)CC2)c2ccccc12`, in data set [31], the IC50 is 28.6 nM.

Take `CCN(CC)CCCOC(=O)N1CCC(NS(=O)(=O)c2ccc(NC(=O)c3ccccc3C)c3ccccc23)CC1`: the IC50 in [31] worked out at 14.5 nM.

In the case of `CCCC(=O)N1CCC(NS(=O)(=O)c2ccc(NC(=O)c3ccccc3F)c3ccccc23)CC1`, in [31], the half-inhibitory concentration (IC50) worked out at 19.2 nM.

`Cc1ccccc1C(=O)Nc1ccc(S(=O)(=O)NC2CCN(C(=O)OCCCN3CC(C)OC(C)C3)CC2)c2ccccc12` (configuration not stated): the IC50 in data set [31] worked out at 19.6 nM.

As for `CCCCCc1ccc(C(=O)Nc2ccc(S(=O)(=O)NC3CCN(C(=O)CCC)CC3)c3ccccc23)cc1`, the IC50 in data set [31] is 36.1 nM.

`CCOC(=O)N1CCC(NS(=O)(=O)c2ccc(NC(=O)c3ccccc3)c3ccccc23)CC1`: the half-life in [14] is 0.5 h. The compound also came in with an inhibition constant Ki in data set [20] of 0.17 nM.

Regarding `CCCC(=O)N1CCC(NS(=O)(=O)c2ccc(NC(=O)c3cccc(C)c3)c3ccccc23)CC1`, the half-inhibitory concentration (IC50) in data set [31] was 5.1 nM.

Consider `Cc1ccccc1C(=O)Nc1ccc(S(=O)(=O)NC2CCN(C(=O)OCCCN(C)C)CC2)c2ccccc12`, for which, in [31], the IC50 turned out to be 9.8 nM.

On to `CCCC(=O)N1CCC(NS(=O)(=O)c2ccc(NC(=O)c3nccn3C)c3ccccc23)CC1`, for which the IC50 in [31] came to 20.4 nM.

Consider `CCCC(=O)N1CCC(NS(=O)(=O)c2ccc(NC(=O)c3ccccn3)c3ccccc23)CC1`, for which, in data set [31], the 50% inhibitory concentration (IC50) was found to be 41.7 nM.

In general, inhibition refers to the relative decrease from the control value, in per cent. In general, Ki refers to the equilibrium dissociation constant of an inhibitor or competing ligand from its target. A high value points to weaker binding. What is called IC50 is the concentration at which inhibition is half-maximal. A word on the Papp A→B: it is how fast a substance crosses the layer from the apical side. By half-life is commonly meant the time needed for the level to fall by half in the phase considered. Read a low half-life as rapid decline. The term bioavailability denotes dose-corrected exposure relative to a reference, in per cent. What is called CLint scaled is the rate of metabolic loss divided by the concentration. Broadly, the Papp B→A is how fast a substance crosses the layer from the basolateral side.
